Test results reported in patent US20230416248A1, “COMPOUNDS AND USES THEREOF” (Foghorn Therapeutics Inc., priority 2020, published 2023).
Like-named read-outs stand apart in the source and are kept apart here.

Columns and labels:
BRM = target: T1, BRM (Homo sapiens, UniProt P51531); test: ATPase catalytic activity of BRM, ADP-Glo in vitro biochemical assay; details: for IC50: 30 nM BRM, 400 μM ATP
T1 construct: made in house; host or cells: High Five insect cells
Summary of the method: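 ADP-Glo luminescence, after depletion of leftover ATP and conversion of ADP, reported the activity. The 1 h room-temperature reaction held 400 μM ATP, 20 nM salmon sperm DNA and 30 nM BRM in 20 mM Tris pH 8, 20 mM MgCl2, 50 mM NaCl, 0.1% Tween-20, 1 mM DTT.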

BRG-1 = target: T2, BRG-1 (Homo sapiens, UniProt P51532); test: ATPase catalytic activity of BRG-1, ADP-Glo in vitro biochemical assay; details: 30 nM BRG-1, 400 μM ATP, read-out: BRG1 IC50
T2 construct: made in house; host or cells: High Five insect cells
Summary of the method: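 Luminescence read-out: ADP formed by BRG-1 ATPase is converted to ATP and detected by luciferase. Residual ATP is first removed with ADP-Glo Reagent for 40 min at RT; detection reagent is then incubated 60 min at RT before reading.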

[1] = ATPase catalytic activity, ADP-Glo

T1 sequence (P51531 whole entry): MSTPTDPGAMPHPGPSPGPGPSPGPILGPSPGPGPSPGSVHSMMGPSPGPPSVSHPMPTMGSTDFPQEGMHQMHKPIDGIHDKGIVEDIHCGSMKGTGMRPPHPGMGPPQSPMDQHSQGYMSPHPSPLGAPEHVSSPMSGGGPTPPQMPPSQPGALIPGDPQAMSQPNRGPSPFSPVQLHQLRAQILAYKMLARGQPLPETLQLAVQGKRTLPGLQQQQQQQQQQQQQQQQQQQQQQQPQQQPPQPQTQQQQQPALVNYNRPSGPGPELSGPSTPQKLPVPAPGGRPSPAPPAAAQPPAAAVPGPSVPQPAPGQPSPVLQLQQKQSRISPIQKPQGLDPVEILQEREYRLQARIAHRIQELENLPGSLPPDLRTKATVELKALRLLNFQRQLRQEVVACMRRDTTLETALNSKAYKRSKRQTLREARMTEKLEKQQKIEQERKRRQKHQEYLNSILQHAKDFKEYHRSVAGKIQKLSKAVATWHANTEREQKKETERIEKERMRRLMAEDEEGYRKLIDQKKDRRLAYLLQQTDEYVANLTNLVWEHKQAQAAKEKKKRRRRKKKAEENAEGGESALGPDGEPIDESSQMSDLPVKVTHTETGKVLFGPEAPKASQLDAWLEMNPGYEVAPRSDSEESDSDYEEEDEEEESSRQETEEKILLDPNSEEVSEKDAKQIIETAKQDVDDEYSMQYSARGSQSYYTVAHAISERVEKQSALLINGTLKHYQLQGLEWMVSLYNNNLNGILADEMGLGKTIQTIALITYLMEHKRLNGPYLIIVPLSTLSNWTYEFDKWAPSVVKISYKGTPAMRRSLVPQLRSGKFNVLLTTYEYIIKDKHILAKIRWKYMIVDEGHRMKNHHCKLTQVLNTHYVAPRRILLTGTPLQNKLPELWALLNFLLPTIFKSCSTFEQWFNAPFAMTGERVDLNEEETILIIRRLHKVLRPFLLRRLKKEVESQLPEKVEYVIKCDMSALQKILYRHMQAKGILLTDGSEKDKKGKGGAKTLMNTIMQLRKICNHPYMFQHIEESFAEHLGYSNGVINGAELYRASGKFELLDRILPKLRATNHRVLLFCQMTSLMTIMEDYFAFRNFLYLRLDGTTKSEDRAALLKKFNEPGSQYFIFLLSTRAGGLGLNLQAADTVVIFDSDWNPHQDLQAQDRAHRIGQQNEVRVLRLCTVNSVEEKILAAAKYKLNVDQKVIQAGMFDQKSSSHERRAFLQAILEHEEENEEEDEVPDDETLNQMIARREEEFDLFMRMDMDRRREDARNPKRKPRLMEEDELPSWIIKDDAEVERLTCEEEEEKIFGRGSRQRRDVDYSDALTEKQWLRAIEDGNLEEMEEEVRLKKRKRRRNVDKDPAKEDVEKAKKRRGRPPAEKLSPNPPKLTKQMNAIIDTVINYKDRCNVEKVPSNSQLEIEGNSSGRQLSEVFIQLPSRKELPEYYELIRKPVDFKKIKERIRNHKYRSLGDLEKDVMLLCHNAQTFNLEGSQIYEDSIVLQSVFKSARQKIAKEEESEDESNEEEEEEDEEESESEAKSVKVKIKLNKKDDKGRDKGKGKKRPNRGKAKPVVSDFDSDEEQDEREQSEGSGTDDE
T2 sequence (P51532 whole entry): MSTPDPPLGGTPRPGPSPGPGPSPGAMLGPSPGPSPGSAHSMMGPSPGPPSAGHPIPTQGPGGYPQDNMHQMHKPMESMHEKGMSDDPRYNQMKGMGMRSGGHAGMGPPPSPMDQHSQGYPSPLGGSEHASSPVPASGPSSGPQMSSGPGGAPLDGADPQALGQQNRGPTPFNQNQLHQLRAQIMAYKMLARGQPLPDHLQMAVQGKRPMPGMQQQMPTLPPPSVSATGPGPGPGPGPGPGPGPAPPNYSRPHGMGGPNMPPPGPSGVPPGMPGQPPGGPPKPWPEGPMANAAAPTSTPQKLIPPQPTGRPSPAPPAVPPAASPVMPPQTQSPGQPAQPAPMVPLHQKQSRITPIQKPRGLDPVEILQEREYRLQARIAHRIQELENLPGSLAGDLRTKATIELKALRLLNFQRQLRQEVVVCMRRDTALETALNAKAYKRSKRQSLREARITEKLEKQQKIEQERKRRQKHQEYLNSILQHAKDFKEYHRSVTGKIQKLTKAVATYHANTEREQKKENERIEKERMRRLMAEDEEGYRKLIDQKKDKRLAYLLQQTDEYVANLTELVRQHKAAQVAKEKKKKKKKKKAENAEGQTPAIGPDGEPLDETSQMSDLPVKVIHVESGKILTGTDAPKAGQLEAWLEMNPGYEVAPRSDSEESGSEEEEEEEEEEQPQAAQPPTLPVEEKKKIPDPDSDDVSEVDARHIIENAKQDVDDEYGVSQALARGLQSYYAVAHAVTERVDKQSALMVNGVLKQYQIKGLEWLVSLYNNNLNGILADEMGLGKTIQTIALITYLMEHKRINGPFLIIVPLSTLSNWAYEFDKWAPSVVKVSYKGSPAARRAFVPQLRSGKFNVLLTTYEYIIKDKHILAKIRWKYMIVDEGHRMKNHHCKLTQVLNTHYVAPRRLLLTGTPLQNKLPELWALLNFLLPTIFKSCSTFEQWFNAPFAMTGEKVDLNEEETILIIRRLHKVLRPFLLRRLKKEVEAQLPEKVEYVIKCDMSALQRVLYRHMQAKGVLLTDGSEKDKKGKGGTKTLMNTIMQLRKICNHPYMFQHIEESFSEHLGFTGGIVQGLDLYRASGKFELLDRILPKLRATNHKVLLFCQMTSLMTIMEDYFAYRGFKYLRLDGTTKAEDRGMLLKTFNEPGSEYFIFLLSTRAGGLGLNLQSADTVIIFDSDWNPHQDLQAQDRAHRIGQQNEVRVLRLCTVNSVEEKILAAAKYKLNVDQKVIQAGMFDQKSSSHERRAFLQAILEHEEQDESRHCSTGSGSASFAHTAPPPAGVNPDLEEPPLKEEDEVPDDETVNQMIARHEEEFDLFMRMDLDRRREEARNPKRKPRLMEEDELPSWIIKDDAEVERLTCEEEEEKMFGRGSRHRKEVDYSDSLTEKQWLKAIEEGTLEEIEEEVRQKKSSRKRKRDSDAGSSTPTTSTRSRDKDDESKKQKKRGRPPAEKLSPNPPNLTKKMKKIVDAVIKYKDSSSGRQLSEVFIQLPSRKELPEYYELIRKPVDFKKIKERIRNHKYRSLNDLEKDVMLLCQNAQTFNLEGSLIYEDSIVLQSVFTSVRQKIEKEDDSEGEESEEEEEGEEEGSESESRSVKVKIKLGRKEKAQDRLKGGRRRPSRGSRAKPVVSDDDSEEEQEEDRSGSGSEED

IC50 (BRM; [1]) [nM] | Ratio* (BRM; ratio of BRG1 IC50 to BRM IC50) | IC50 (BRG-1; [1]) [nM] | IC50 (BRM; ADP-Glo ATPase assay) [nM] | Ratio* (BRM; ratio BRG1 IC50 / BRM IC50) | IC50 (BRG-1; ADP-Glo ATPase assay) [nM] | SMILES
– | – | – | 36.8 | 8.10 | 298 | COc1cnc2c(c1)CCN2c1ccc2cnc(CNC(=O)c3ccc4c(c3)S(=O)(=O)CCOC4)cc2n1 [Compound 703]
– | – | – | 91.1 | 23.18 | 2110 | C[C@@H]1CN(c2cccc(-c3ccc4cnc(CNC(=O)c5ccc6c(c5)S(=O)(=O)CCC5(CC5)O6)cc4n3)n2)C[C@H](C)O1 [Compound 704]
– | – | – | 4.3 | 13.63 | 58.1 | CO[C@H](C)COc1ccc2c(c1)N(c1ccc3cnc(CNC(=O)c4ccc5c(c4)S(=O)(=O)CCOC5)cc3n1)CCC2 [Compound 705]
– | – | – | 5 | 9.39 | 46.9 | CO[C@@H](C)COc1ccc2c(c1)N(c1ccc3cnc(CNC(=O)c4ccc5c(c4)S(=O)(=O)CCOC5)cc3n1)CCC2 [Compound 706]
– | – | – | 54.6 | 4.84 | 264 | C[C@@H]1CN(c2ccnc(-c3ccc4cnc(CNC(=O)c5ccc6c(c5)S(=O)(=O)CCOC6)cc4c3)n2)C[C@H](C)O1 [Compound 707]
– | – | – | 52.9 | 17.15 | 907 | C[C@@H]1CN(c2ccnc(-c3ccc4cnc(CNC(=O)c5ccc6c(c5)S(=O)(=O)[C@@H](C)COC6)cc4c3)n2)C[C@H](C)O1 [Compound 708]
– | – | – | 37.6 | 11.57 | 436 | C[C@H]1COCc2ccc(C(=O)NCc3cc4nc(-c5cccc(N6C[C@H]7COC[C@H]7C6)n5)ccc4cn3)cc2S1(=O)=O [Compound 709]
– | – | – | 29.8 | 5.13 | 153 | C[C@@H]1CN(c2cccc(-c3cnc4cnc(CNC(=O)c5ccc6c(c5)S(=O)(=O)[C@@H](C)COC6)cc4n3)n2)C[C@H](C)O1 [Compound 710]
– | – | – | 9.3 | 27.53 | 255 | COCc1ccc2c(c1F)N(c1ccc3cnc(CNC(=O)c4ccc5c(c4)S(=O)(=O)CCOC5)cc3n1)CCC2 [Compound 711]
– | – | – | 8.6 | 11.90 | 102 | CC1(c2cnc3c(c2)OCCN3c2ccc3cnc(CNC(=O)c4ccc5c(c4)S(=O)(=O)CCOC5)cc3n2)CC1 [Compound 712]
– | – | – | 45.9 | 21.51 | 987 | CC1(c2ccc3c(n2)N(c2ccc4cnc(CNC(=O)c5ccc6c(c5)S(=O)(=O)CCOC6)cc4n2)CCO3)CC1 [Compound 713]
– | – | – | 54.9 | – | 667 | COc1cc2c(cc1F)CCCN2c1ccc2cnc(CNC(=O)c3ccc4c(c3)S(=O)(=O)CCOC4)cc2n1 [Compound 714]
– | – | – | 5.4 | 4.12 | 22.1 | [2H]C1([2H])OC([2H])([2H])[C@H](C)S(=O)(=O)c2cc(C(=O)NCc3cc4nc(-c5cccc(N6C[C@@H](C)O[C@@H](C)C6)n5)ccc4cn3)ccc21 [Compound 715]
– | – | – | 1730 | 2.75 | 4770 | COCC1CN(c2ccc3cnc(CNC(=O)c4ccc5c(c4)S(=O)(=O)CCOC5)cc3n2)c2ccccc2O1 (centres unmarked) [Compound 716]
– | – | – | 77 | 5.61 | 432 | [2H]C1([2H])OC([2H])([2H])[C@@H](C)S(=O)(=O)c2cc(C(=O)NCc3cc4nc(-c5cccc(N6C[C@@H](C)O[C@@H](C)C6)n5)ccc4cn3)ccc21 [Compound 717]
– | – | – | 10.5 | 9.44 | 99.6 | COc1ccc(F)c2c1CCCN2c1ccc2cnc(CNC(=O)c3ccc4c(c3)S(=O)(=O)CCOC4)cc2n1 [Compound 718]
– | – | – | 42.6 | 13.62 | 580 | COc1cc2c(cn1)N(c1ccc3cnc(CNC(=O)c4ccc5c(c4)S(=O)(=O)CCOC5)cc3n1)CCC2 [Compound 719]
– | – | – | 43.6 | 5.30 | 231 | O=C(NCc1cc2nc(N3CCc4cc(C(F)F)cnc43)ccc2cn1)c1ccc2c(c1)S(=O)(=O)CCOC2 [Compound 720]
– | – | – | 8.8 | 81.47 | 716 | O=C(NCc1cc2nc(N3CCOc4ccc(C5CCC5)nc43)ccc2cn1)c1ccc2c(c1)S(=O)(=O)CCOC2 [Compound 722]
– | – | – | 40.2 | 16.58 | 667 | O=C(NCc1cc2nc(N3CCC4(CCC4)c4cccnc43)ccc2cn1)c1ccc2c(c1)S(=O)(=O)CCOC2 [Compound 723]

The remaining lines, values behind:

SMILES | IC50 (BRM; [1]) [nM] | Ratio* (BRM; ratio of BRG1 IC50 to BRM IC50) | IC50 (BRG-1; [1]) [nM] | IC50 (BRM; ADP-Glo ATPase assay) [nM] | Ratio* (BRM; ratio BRG1 IC50 / BRM IC50) | IC50 (BRG-1; ADP-Glo ATPase assay) [nM]
O=C(NCc1cc2nc(N3CCCc4ccc(OCC5COC5)cc43)ccc2cn1)c1ccc2c(c1)S(=O)(=O)CCOC2 [Compound 676] | 3 | 11.70 | 35.5 | – | – | –
O=C(NCc1cc2nc(N3CCCc4c(OC5CC5)ccnc43)ccc2cn1)c1ccc2c(c1)S(=O)(=O)CCOC2 [Compound 677] | 3.8 | 9.28 | 35.7 | – | – | –
O=C(NCc1cc2nc(-c3ccc4c(n3)C(F)(F)CC4)ccc2cn1)c1ccc2c(c1)S(=O)(=O)CCOC2 [Compound 678] | 54.5 | 10.07 | 549 | – | – | –
Cc1ccc2c(n1)N(c1ccc3cnc(CNC(=O)c4ccc5c(c4)S(=O)(=O)CCOC5)cc3c1)CCO2 [Compound 679] | 18.9 | 22.41 | 423 | – | – | –
Cc1ccc2c(n1)N(c1ccc3cnc(CNC(=O)c4ccc5c(c4)S(=O)(=O)[C@@H](C)COC5)cc3c1)CCO2 [Compound 680] | 32.7 | 29.69 | 969 | – | – | –
Cc1ccnc2c1N(C)CCN2c1ccc2cnc(CNC(=O)c3ccc4c(c3)S(=O)(=O)CCOC4)cc2n1 [Compound 681] | 33 | 9.53 | 315 | – | – | –
CC(F)(F)c1ccc2c(c1)N(c1ccc3cnc(CNC(=O)c4ccc5c(c4)S(=O)(=O)CCOC5)cc3n1)CCO2 [Compound 682] | 10.3 | 15.88 | 164 | – | – | –
COc1cc2c(nc1C1CC1)N(c1ccc3cnc(CNC(=O)c4ccc5c(c4)S(=O)(=O)CCOC5)cc3n1)CCC2 [Compound 683] | 76.3 | 10.42 | 795 | – | – | –
O=C(NCc1cc2nc(N3CCN(C4CC4)c4cccnc43)ccc2cn1)c1ccc2c(c1)S(=O)(=O)CCOC2 [Compound 686] | 14.3 | 13.91 | 199 | – | – | –
C[C@@H]1CN(c2cccc(-c3ccc4cnc(CNC(=O)c5ccc6c(c5)S(=O)(=O)[C@@H](C)CO6)cc4n3)n2)C[C@H](C)O1 [Compound 687] | 19.7 | 18.34 | 360 | – | – | –
Cn1cnc2c1CCCN2c1ccc2cnc(CNC(=O)c3ccc4c(c3)S(=O)(=O)CCOC4)cc2n1 [Compound 688] | 257 | 6.65 | 1710 | – | – | –
O=C(NCc1cc2nc(N3CCCc4ccc([C@@H]5CC5(F)F)nc43)ccc2cn1)c1ccc2c(c1)S(=O)(=O)CCOC2 [Compound 689] | 40.2 | 21.94 | 882 | – | – | –
O=C(NCc1cc2nc(N3CCCc4ccc([C@H]5CC5(F)F)nc43)ccc2cn1)c1ccc2c(c1)S(=O)(=O)CCOC2 [Compound 690] | 23.5 | 54.81 | 1290 | – | – | –
O=C(NCc1cc2nc(N3CCOc4cc(Cl)cnc43)ccc2cn1)c1cc(F)c2c(c1)S(=O)(=O)CCOC2 [Compound 691] | 9.5 | 16.64 | 159 | – | – | –
O=C(NCc1cc2nc(N3CCCc4ccc(OC5COC5)cc43)ccc2cn1)c1ccc2c(c1)S(=O)(=O)CCOC2 [Compound 692] | 6 | 14.09 | 84.9 | – | – | –
C[C@H]1CCN(C)c2nc(-c3ccc4cnc(CNC(=O)c5ccc6c(c5)S(=O)(=O)CCOC6)cc4n3)ccc21 [Compound 694] | 34.2 | 8.38 | 287 | – | – | –
C[C@@H]1CCN(C)c2nc(-c3ccc4cnc(CNC(=O)c5ccc6c(c5)S(=O)(=O)CCOC6)cc4n3)ccc21 [Compound 695] | 43.3 | 9.72 | 420 | – | – | –
COC[C@@H](C)Oc1ccc2c(c1)N(c1ccc3cnc(CNC(=O)c4ccc5c(c4)S(=O)(=O)CCOC5)cc3n1)CCC2 [Compound 696] | 6.8 | 18.76 | 128 | – | – | –
COC[C@H](C)Oc1ccc2c(c1)N(c1ccc3cnc(CNC(=O)c4ccc5c(c4)S(=O)(=O)CCOC5)cc3n1)CCC2 [Compound 697] | 4.9 | 7.66 | 37.9 | – | – | –
O=C(NCc1cc2nc(N3CCOc4cc(Cl)c(C5CC5)nc43)ccc2cn1)c1ccc2c(c1)S(=O)(=O)CCOC2 [Compound 698] | 193 | 24.47 | 4720 | – | – | –
CN1CCC2(c3cccc(-c4ccc5cnc(CNC(=O)c6ccc7c(c6)S(=O)(=O)CCOC7)cc5n4)n3)CC2C1 (centres unmarked) [Compound 699] | 275 | 8.04 | 2210 | – | – | –
O=C(NCc1cc2nc(N3CCOc4ccc([C@H]5CC5(F)F)nc43)ccc2cn1)c1ccc2c(c1)S(=O)(=O)CCOC2 [Compound 700] | 14.5 | 52.11 | 758 | – | – | –
COCCn1cc2cccc(-c3ccc4cnc(CNC(=O)c5ccc6c(c5)S(=O)(=O)CCOC6)cc4n3)c2n1 [Compound 701] | 87.2 | 9.96 | 868 | – | – | –
O=C(NCc1cc2nc(N3CCOc4ccc([C@@H]5CC5(F)F)nc43)ccc2cn1)c1ccc2c(c1)S(=O)(=O)CCOC2 [Compound 702] | 10.2 | 93.83 | 960 | – | – | –
